From patent US5236918A, “6-aryl-3-cyanaminopyridazines, their preparation and use and medicaments containing them” (BYK Gulden Lomberg Chemische Fabrik GmbH, priority 1989, dated 1993)

Assays:
[1] = test system: tracheal ring chain of the guinea-pig; assay: bronchospasmolytic action on the tracheal ring chain of the guinea-pig in vitro (relaxation of stable tonic spontaneous contraction); assay type: cell-based; conditions: for EC50: Cavia porcellus, EC50 in mol/l, 50% of the maximum relaxation achievable with (-)isoprenaline 10^-6 mol/l, spontaneous contraction, 37° C.; for [EC50]theophylline / [EC50]substance: quotient of EC50 values, theophylline = 1
Procedure: The bronchospasmolytic action of the compounds on the tracheal ring chain of the guinea-pig was tested in vitro as follows: Four parallel tracheal ring chains, each consisting of 6 individual rings, of the guinea-pig (female and male, 430-600 g), in an organ bath [5 ml, Krebs-Henseleit solution with addition of phentolamine (10^-5 mol/l), 37° C., pretension of the organs 2 g, gassing with carbogen] develop a stable, tonic spontaneous contraction after about 20 to 30 minutes. Relaxation can be brought about on these permanently contracted organs under isometric measurement conditions by application of the test substance in a cumulatively semi-logarithmically increasing concentration (e.g. 1×10^-6 +2×10^-6 +7×10^-6 +2×10^-5etc. mol/l), a constant relaxation response being awaited after each individual dose of the test substance before the next higher concentration is applied. A complete dose/effect curve of the test substance is thus obtained over a period of 20 to 30 minutes. The particular relaxation is expressed as the percentage fraction of the maximum relaxation which can be achieved by addition of (-)isoprenaline (10^-6 mol/l).

PDE IV [2] = assay: inhibition of PDE IV from human neutrophilic polymorphonuclear cells (PMNs); assay type: biochemical; conditions: for [IC50]theophylline / [IC50]substance: PDE IV human PMNs, quotient of IC50 values, theophylline = 1; for -log[IC50] PDE IV PNMs: human neutrophilic polymorphonuclear cells, cAMP 0.5 μmol/l, 37° C., 20 minutes
Source text: (§1) The inhibition of phosphodiesterases of classes III (PDE III=high-affinity cAMP-PDE which can be inhibited by cGMP) and IV (PDE IV=high-affinity cAMP-PDE which cannot be inhibited by cGMP, Rolipram-sensitive) is regarded as being particularly conclusive for a bronchospasmolytic and/or antiinflammatory action which may be expected [H. Hidaka et al., Adv. Cycl. Nucl. Res. 13, 145 (1984); Tips 5, 237 (1984); R. Weishaar et al., J. Med. Chem. 28, 537 (1985); S. A. Harrison et al., Molec. Pharmac. 29, 506 (1986); J. Klein-Tebbe et al., Allergologie 12, 12 (1989); C. Schudt et al., Allergologie 12, 12 (1989)].
(§2) The PDE inhibition of the compounds according to the invention was therefore determined on a PDE III isolated from human platelets and PDE IV isolated from human neutrophilic polymorphonuclear cells (PMNs) and from the canine trachea. The phosphodiesterases III and IV are isolated by chromatography by the method of Polson et al., Biochem. Pharmacol. 31, 3403-3406 (1982).
(§3) The substances are dissolved in DMSO and diluted further. From a series of solutions diluted up to a hundred-fold, 2.1 μl portions are taken and 212 μl reaction mixture are added. The reaction mixture contains Hepes (100 mmol/l), DTE (5 mmol/l), MgCl2 (5 mmol/l), CaCl2 (10 μmol/l), BSA fraction V 0.5 mg/ml, cAMP 0.5 μmol/l, 2,8-^3 H-cAMP 250,000 cpm/ml (0.3 μCi/ml, s.a. 33.5 μCi/mmol) and SV (snake venom) (25 μg/212 μl test batch).
(§4) The reaction is started by addition of 10 μl PDE to the reaction mixture and to the substance batch. The mixtures are then incubated at 37° C. for 20 minutes. The reaction is stopped by heating at 95° C. for 45 seconds. After the samples have cooled, the SV solution is added, the 5-AMP formed being cleaved. After incubation for 30 minutes at 37° C., this reaction is stopped by addition of 1 ml anion exchanger suspension. The cAMP which remains is thereby bonded. The adenosine formed remains in the supernatant after centrifugation and can be measured in an aliquot by the radioactivity contained therein.

PDE IV [3] = assay: inhibition of PDE IV from the canine trachea; assay type: biochemical; conditions: for [IC50]theophylline / [IC50]substance: PDE IV canine trachea, quotient of IC50 values, theophylline = 1; for -log[IC50] PDE IV canine trachea: cAMP 0.5 μmol/l, 37° C., 20 minutes
Source text: as §1, §2, §3, §4

PDE III = molecular target: T1, PDE III (Homo sapiens, UniProt Q14432); assay: inhibition of PDE III isolated from human platelets; assay type: biochemical; conditions: for [IC50]theophylline / [IC50]substance: PDE III, quotient of IC50 values, theophylline = 1; for IC50: human platelets, cAMP 0.5 μmol/l, 37° C., 20 minutes, read-out: -log[IC50] PDE III (converted)
T1 construct: PDE III isolated from human platelets; from tissue; host or cells: human platelets
Source text: as §1, §2, §3, §4

T1 sequence (Q14432 whole entry): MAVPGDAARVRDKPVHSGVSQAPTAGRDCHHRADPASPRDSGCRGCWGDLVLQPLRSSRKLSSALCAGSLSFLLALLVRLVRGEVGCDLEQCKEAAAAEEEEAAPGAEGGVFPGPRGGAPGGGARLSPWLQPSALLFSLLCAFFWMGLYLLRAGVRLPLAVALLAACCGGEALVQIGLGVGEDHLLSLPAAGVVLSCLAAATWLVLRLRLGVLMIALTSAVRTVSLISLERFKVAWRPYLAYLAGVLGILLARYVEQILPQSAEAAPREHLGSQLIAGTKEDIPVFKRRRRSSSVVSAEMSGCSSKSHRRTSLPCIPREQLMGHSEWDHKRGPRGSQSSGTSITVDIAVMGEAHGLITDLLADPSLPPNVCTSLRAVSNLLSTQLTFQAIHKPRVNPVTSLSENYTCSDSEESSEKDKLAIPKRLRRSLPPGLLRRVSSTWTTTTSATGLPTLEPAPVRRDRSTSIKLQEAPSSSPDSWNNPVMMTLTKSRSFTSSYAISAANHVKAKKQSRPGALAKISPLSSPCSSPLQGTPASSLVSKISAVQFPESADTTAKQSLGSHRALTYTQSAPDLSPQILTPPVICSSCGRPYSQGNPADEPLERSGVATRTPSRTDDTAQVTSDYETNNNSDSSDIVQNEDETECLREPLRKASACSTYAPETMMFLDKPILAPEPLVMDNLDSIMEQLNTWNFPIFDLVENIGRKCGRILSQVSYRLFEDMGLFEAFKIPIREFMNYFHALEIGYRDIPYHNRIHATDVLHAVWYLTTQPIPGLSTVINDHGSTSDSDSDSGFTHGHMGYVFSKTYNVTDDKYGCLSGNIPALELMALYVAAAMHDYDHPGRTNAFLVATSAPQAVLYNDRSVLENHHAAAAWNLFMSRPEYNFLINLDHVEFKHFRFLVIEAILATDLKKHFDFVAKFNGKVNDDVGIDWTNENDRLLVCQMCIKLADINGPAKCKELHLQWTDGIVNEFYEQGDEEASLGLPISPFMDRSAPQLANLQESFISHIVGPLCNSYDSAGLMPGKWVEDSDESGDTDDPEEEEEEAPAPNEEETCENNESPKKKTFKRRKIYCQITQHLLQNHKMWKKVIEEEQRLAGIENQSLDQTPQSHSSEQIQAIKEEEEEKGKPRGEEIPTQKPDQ

Row | SMILES | EC50 [1] [µM] | [EC50]theophylline / [EC50]substance [1] | [IC50]theophylline / [IC50]substance (PDE IV [2]) | -log[IC50] PDE IV PNMs (PDE IV [2]) | [IC50]theophylline / [IC50]substance (PDE IV [3]) | -log[IC50] PDE IV canine trachea (PDE IV [3]) | [IC50]theophylline / [IC50]substance (PDE III) | IC50 (PDE III) [µM]
1 | CCOc1ccc(-c2ccc(NC#N)nn2)cc1OC(F)F [Compound 14, 3-Cyanamino-6-(3-difluoromethoxy-4-ethoxyphenyl)pyridazine] | 2.04 | 66.1 | 85.1 | 5.69 | – | – | – | –
2 | COc1ccc(-c2ccc(NC#N)nn2)cc1OC [Compound 10, 3-Cyanamino-6-(3,4-dimethoxyphenyl)pyridazine] | 7.08 | 19.1 | – | – | 74.1 | 5.68 | 15.1 | 10.7
3 | CCCOc1ccc(-c2ccc(NC#N)nn2)cc1OC [Compound 1, 3-Cyanamino-6-(3-methoxy-4-n-propoxyphenyl)pyridazine] | 5.62 | 24.0 | – | – | – | – | – | –
4 | COc1ccc(-c2ccc(NC#N)nn2)cc1OC1CCCC1 [Compound 11, 3-Cyanamino-6-(3-cyclopentyloxy-4-methoxyphenyl)pyridazine] | 0.562 | 240 | 288 | 6.22 | 120 | 5.89 | – | –
5 | COc1cc(-c2ccc(NC#N)nn2)ccc1OCC(C)C [Compound 5, 3-Cyanamino-6-[3-methoxy-4-(2-methylpropoxy)phenyl]pyridazine] | 3.55 | 38.1 | – | – | – | – | – | –
6 | COc1ccc(-c2ccc(NC#N)nn2)cc1OC(F)F [Compound 9, 3-Cyanamino-6-(3-difluoromethoxy-4-methoxyphenyl)pyridazine] | 2.34 | 57.6 | – | – | 69.2 | 5.65 | 13.2 | 12.3
7 | CC(C)COc1cc(-c2ccc(NC#N)nn2)ccc1OC(F)F [Compound 19, 3-Cyanamino-6-[4-difluoromethoxy-3-(2-methylpropoxy)phenyl]pyridazine] | 1.41 | 95.6 | 525 | 6.48 | – | – | – | –
8 | N#CNc1ccc(-c2ccc(OCC3CC3)c(OC(F)F)c2)nn1 [Compound 21, 3-Cyanamino-6-(4-cyclopropylmethoxy-3-difluoromethoxyphenyl)pyridazine] | 1 | 135 | – | – | – | – | – | –
9 | COc1cc(-c2ccc(NC#N)nn2)ccc1OC(F)F [Compound 8, 3-Cyanamino-6-(4-difluoromethoxy-3-methoxyphenyl)pyridazine] | 1.86 | 72.5 | – | – | 70.8 | 5.66 | – | –
10 | N#CNc1ccc(-c2ccc(OC(F)F)c(OC3CCCC3)c2)nn1 [Compound 17, 3-Cyanamino-6-(3-cyclopentyloxy-4-difluoromethoxyphenyl)pyridazine] | 0.759 | 178 | 513 | 6.47 | – | – | – | –
11 | COc1cc(-c2ccc(NC#N)nn2)ccc1OC(C)C [Compound 6, 3-Cyanamino-6-[3-methoxy-4-(1-methylethoxy)phenyl]pyridazine] | 8.13 | 16.6 | – | – | – | – | 25.7 | 6.31
12 | COc1ccc(-c2ccc(NC#N)nn2)cc1OCC1CCC1 [Compound 15, 3-Cyanamino-6-(3-cyclobutylmethoxy-4-methoxyphenyl)pyridazine] | 0.912 | 148 | – | – | 77.7 | 5.70 | – | –
13 | CCOc1cc(-c2ccc(NC#N)nn2)ccc1OC [Compound 2, 3-Cyanamino-6-(3-ethoxy-4-methoxyphenyl)pyridazine] | 3.02 | 44.7 | – | – | 95.6 | 5.79 | 15.5 | 10.5
